Source: patent US8809586B2, “Modafinil compositions” (priority 2004, dated 2014)

assay: Solubility measured from an isopropyl acetate slurry, by HPLC; conditions: solid from solubility samples dried under nitrogen, characterized by PXRD and thermal microscopy

For `NC(=O)C[S@@+]([O-])C(c1ccccc1)c1ccccc1` [R-(−)-modafinil Form IV, R-(−)-2-[(Diphenylmethyl)sulfinyl]acetamide], which “Form conversion during solubility procedure” value is on record?
Its value is “Form conversion was not observed”.

With `NC(=O)C[S@@+]([O-])C(c1ccccc1)c1ccccc1` [R-(−)-modafinil Form III, R-(−)-2-[(Diphenylmethyl)sulfinyl]acetamide] as the compound, how does the “Form conversion during solubility procedure” value read?
The value was “Form conversion was not observed”.

With `NC(=O)C[S@@+]([O-])C(c1ccccc1)c1ccccc1` [R-(−)-modafinil Form V, R-(−)-2-[(Diphenylmethyl)sulfinyl]acetamide] as the compound, how does the “Form conversion during solubility procedure” value read?
The value was “Form conversion was not observed”.
